Test results: ChEMBL document CHEMBL3046174, “Docking and CoMFA study on novel human CCR5 receptor antagonists” (Med Chem Res, 2013)

Target: C-C chemokine receptor type 5 (Homo sapiens, UniProt P51681)
Test: Antagonist activity at Homo sapiens (human) CCR5 receptor

Chain of C-C chemokine receptor type 5 (P51681 whole entry): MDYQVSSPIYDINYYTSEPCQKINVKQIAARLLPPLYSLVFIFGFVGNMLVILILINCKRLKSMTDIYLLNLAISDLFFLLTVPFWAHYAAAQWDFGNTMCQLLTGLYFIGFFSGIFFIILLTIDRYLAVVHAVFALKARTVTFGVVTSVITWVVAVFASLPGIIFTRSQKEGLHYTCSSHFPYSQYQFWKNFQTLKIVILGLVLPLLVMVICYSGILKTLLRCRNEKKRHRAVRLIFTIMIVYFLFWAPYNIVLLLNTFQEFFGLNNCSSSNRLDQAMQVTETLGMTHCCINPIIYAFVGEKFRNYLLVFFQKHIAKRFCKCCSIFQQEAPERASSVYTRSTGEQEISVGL

## Brc1ccc(COc2ccc(Br)cc2N2CCOCC2)cc1
  IC50: 1 µM

## CC1CCN(CC2(O)CCN(Cc3cc(Br)ccc3OCc3ccc(Cl)cc3)CC2)CC1
  IC50: 0.21 µM

## N=C(N)N/N=C/c1cc(Br)ccc1OCc1cccc(Cl)c1
  IC50: 0.839 µM

## Cc1ccc(NC(=O)NCC2(O)CCC(Cc3cc(Br)ccc3OCc3ccc(Cl)cc3)CC2)cc1 (stereo not drawn)
  IC50: 1.5 µM

## O=C(NCC1(O)CCC(Cc2cc(Br)ccc2OCc2ccc(Cl)cc2)CC1)Nc1c(Cl)cc(Cl)cc1Cl (stereo not drawn)
  IC50: 0.45 µM

## C/C(=N\NC(=N)N)c1cc(Br)ccc1OCc1ccc(C#N)cc1
  IC50: 0.0929 µM

## CC/C(=N\NC(=N)N)c1cc(Br)ccc1OCc1ccc(Cl)cc1
  IC50: 0.4 µM

## CN(C)c1cc(Br)ccc1OCc1ccc(Cl)cc1
  IC50: 0.6 µM

## O=C(NCC1(O)CCC(Cc2cc(Br)ccc2OCc2ccc(Cl)cc2)CC1)Nc1c(F)cccc1F (stereo not drawn)
  IC50: 0.32 µM

## O=C(NCC1(O)CCC(Cc2cc(Br)ccc2OCc2ccc(Cl)cc2)CC1)Nc1c(Cl)cccc1Cl (stereo not drawn)
  IC50: 0.057 µM

## Cc1cc(Br)cc(C)c1NC(=O)NCC1(O)CCC(Cc2cc(Br)ccc2OCc2ccc(Cl)cc2)CC1 (stereo not drawn)
  IC50: 0.17 µM

## Cc1cc(C)c(NC(=O)NCC2(O)CCC(Cc3cc(Br)ccc3OCc3ccc(Cl)cc3)CC2)c(C)c1 (stereo not drawn)
  IC50: 0.1 µM

## Cc1cccc(C)c1NC(=O)NCC1(O)CCC(Cc2cc(Br)ccc2OCc2ccc(Cl)cc2)CC1 (stereo not drawn)
  IC50: 0.047 µM

## CCc1cccc(CC)c1NC(=O)NCC1(O)CCC(Cc2cc(Br)ccc2OCc2ccc(Cl)cc2)CC1 (stereo not drawn)
  IC50: 0.011 µM

## CC(C)c1cccc(C(C)C)c1NC(=O)NCC1(O)CCC(Cc2cc(Br)ccc2OCc2ccc(Cl)cc2)CC1 (stereo not drawn)
  IC50: 0.035 µM

## N=C(N)N/N=C/c1cc(Br)ccc1OCc1ccc(F)c(F)c1
  IC50: 3.7 µM

## CCN(CC)c1cc(Br)ccc1OCc1ccc(Cl)cc1
  IC50: 1.4 µM

## N=C(N)N/N=C/c1cc(Br)ccc1OCc1ccc(Cl)cc1
  IC50: 0.6 µM
